In PubChem BioAssay (NCI) one finds TGI and GI50 data, which are given here for 24 molecules.

Several values for one entry are separate records, joined by “and”; a condition that tells them apart may be missing. Equal values may be shown once.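 Dose response: 5 concentrations. Exposure: 48 h. Format: 96-well plates. Endpoint: linear interpolation; highest concentration if not reached. GI50: concentration for 50% inhibition of growth. The concentration for full growth arrest is given as TGI.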

Holding throughout (assay): NCI anticancer screen, dose series, 48 h
The subject of assay [1] is RXF 393 renal.
The test system of assay [2] is NCI-H522 lung.
The test system of assay [3] is MOLT-4 leukemia.
The test system of assay [4] is KM12 colon.
Assay [5] deals with SK-MEL-5 melanoma.
Assay [6] concerns OVCAR-8 ovarian.
In assay [7] the test system is NCI-H460 lung.
Assay [8] concerns HT29 colon.
For assay [9], the system named is CAKI-1 renal.
The test system of assay [10] is NCI-H226 lung.

`Fc1cc(-c2cc(-c3ccc4c(c3)OCO4)n[nH]2)c(Cl)cc1Cl`: the TGI in assay [1] was 4.45 µM; in assay [2], 14.6 µM; in assay [3] it was more than 50.7 µM; in assay [4] it was more than 22.7 µM; in assay [5], 21 µM; in [6], 3.41 µM. For the same molecule, the TGI was 14.6 µM in assay [7], 15.9 µM in assay [8], 10.8 µM in assay [9] and 5.7 µM in assay [10].
For the molecule `COc1ccc(-c2nn(-c3ccc(NC(=O)Nc4ccc(Cl)c(C(F)(F)F)c4)cc3)cc2-c2ccncc2)cc1Cl`, the GI50 in [1] is 0.74 µM; in assay [2], 1.27 µM; in [3], 1.7 µM; in [4] it was 1.22 µM; in assay [5] it was 1.5 µM; in [6], 2.02 µM. For the same molecule, the GI50 in [7] was 1.4 µM; in assay [8], 1.65 µM; in [9] it was 1.78 µM; in [10] it was 2.59 µM. Also, the TGI in assay [1] stood at 2.19 µM; in assay [2], 3.95 µM; in assay [3] it was 6.75 µM; in assay [4] it was 4.34 µM; in [5], 2.82 µM; in assay [6] it was 20.7 µM. Besides, the TGI in assay [7] was determined as 3.36 µM; in [8] it was 4.57 µM; in [9], 5.18 µM; in assay [10], 8.78 µM.
Take `C=C1C(=O)OC2CC3(C)OC3CC/C(C)=C/C(OC(C)=O)C12` (stereo not given): the TGI in [1] was 16.4 µM; in [2] it was 2.64 µM; in assay [3], 13.9 µM; in assay [4], 39.9 µM; in assay [5] it was 20.4 µM; in assay [6], 13.6 µM. In addition, the TGI in assay [7] turned out to be 31.6 µM; in assay [8] it was 13.5 µM; in assay [9], 6.24 µM; in assay [10] it was 26.8 µM.
`CC(C)(C)[Si](C)(C)OCC1OC(n2cnc3c(=O)[nH]c(N)nc32)C(O[Si](C)(C)C(C)(C)C)C1O[Si](C)(C)C(C)(C)C` (stereo not given): the TGI worked out at 4.69 µM in assay [1]; 3.61 µM in [2]; 3.45 µM in assay [3]; 3.19 µM in assay [4]; 1.77 µM in assay [5]; 11.3 µM in [6]. Besides, the TGI is 6.54 µM in [7], 4.16 µM in assay [8], 52.9 µM in assay [9] and 6.79 µM in assay [10].
Consider `c1ccc(CN2CCN3CCN(CC2)CCN(Cc2ccccc2)CC3)cc1`, for which the TGI in [1] was 21.3 µM; in assay [2] it was 16 µM; in assay [3], more than 56.7 µM; in [4] it was 14.6 µM; in [5], 4.96 µM; in assay [6], 23.3 µM. For the same molecule, the TGI in [7] is 19.3 µM; in assay [8], 17.2 µM; in assay [9], more than 88.3 µM; in [10] it was 19.1 µM.
For the molecule `C=C(C(=O)O[C@H]1C(=O)C2=C(C)CCC3C(=C)C(=O)O[C@@H]3C2[C@]1(C)O)C1CC[C@]2(C)CCCC(=C)[C@H]2C1` (stereo not given in full), the GI50 was 1.79 µM in assay [1]; 8.45 µM in assay [5]; 5.67 µM in assay [6]; 0.0398 µM in assay [7]; 1.59 µM in assay [8]; 3.67 µM in assay [9]. In [10], the GI50 is 6.81 µM. Further, the TGI in assay [1] was 2.52 µM and 3.65 µM; in assay [2], 8.55 µM; in [3] it was 5.38 µM; in [4] it was 20.5 µM; in assay [5] it was 15.8 µM and 29.7 µM; in assay [6], 12.3 µM and 13.1 µM. Moreover, the TGI was 10.4 µM and 11.1 µM in assay [7]; 13.5 µM and 10.8 µM in [8]; 10.2 µM and 25.3 µM in assay [9]; 16 µM and 36.6 µM in [10].
Consider `Cc1ccc(NC(=O)CSC(N)=O)cc1C`, for which the TGI in [1], in [2], in assay [3], in assay [4], in [5] and in assay [6] was more than 100 µM throughout. Further, the TGI in assay [7], in assay [8], in assay [9] and in [10] was more than 100 µM each time.
For `COc1cc(CS(=O)c2ccc(O)cc2)cc(OC)c1OC` (stereo not given), the TGI in assay [1], in assay [2], in [3], in [4], in [5] and in [6] was more than 100 µM in each case. Moreover, the TGI in [7], in assay [8], in assay [9] and in assay [10] was more than 100 µM each time.
As to `CCC[C@@H]1C(=O)N=C(N)N1C(=O)OCc1ccccc1`, the TGI in [1], in assay [2], in [3], in assay [4], in assay [5] and in [6] was more than 100 µM throughout. In addition, the TGI in assay [7], in assay [8], in [9] and in [10] was more than 100 µM in each case.
For the molecule `C=C(c1ccccc1)c1ccccc1-c1cc(-c2ccccc2)cc(-c2ccccc2)n1`, the TGI in [1], in assay [2], in assay [3], in [4], in assay [5] and in assay [6] was more than 100 µM each time. The TGI in assay [7], in [8], in [9] and in assay [10] was more than 100 µM each time.
Take `COC(=O)C(NC(=O)c1ccccc1)C(c1ccc(Cl)cc1)P(=O)(OC)OC` (stereo not given): the TGI in assay [1], in assay [2], in assay [3], in assay [4], in [5] and in assay [6] was more than 100 µM throughout. Besides, the TGI in assay [7], in [8], in [9] and in assay [10] was more than 100 µM each time.
Take `CN(C)/N=N/c1nc[nH]c1C(N)=O`: the GI50 was 93.3 µM in assay [1]; 82 µM in [2]; 17.8 µM in assay [3]; more than 156 µM in assay [4]; 120 µM in assay [5]; 35.9 µM in assay [6]. Further, the GI50 is 59.4 µM in assay [7], 607 µM in assay [8] and 140 µM in assay [10]. For the same molecule, the TGI was 99.4 µM and > 165 µM in [1]; 89.3 µM and > 779 µM in assay [2]; more than 1000 µM in assay [4]; 96.2 µM and > 429 µM in [5]; more than 1000 µM in assay [6]; more than 1000 µM in [7]. The TGI in assay [8] is more than 1000 µM; in [9], 71.7 µM and 539 µM.
Turning to `COc1ccc(N2C(=O)C3c4[nH]c5ccccc5c4C4CCCCC4C3C2=O)cc1` (stereo not given), the TGI in assay [1] is 55.6 µM; in [2], more than 100 µM; in assay [3], 36.9 µM; in assay [4], more than 100 µM; in assay [5], 66 µM; in assay [6], 28.6 µM. Further, the TGI in assay [7], in assay [8], in assay [9] and in assay [10] was more than 100 µM throughout.
In the case of `COc1ccc(C[C@H](N)C(=O)N2C[C@@H](CO)C[C@@H](n3ccc(=O)[nH]c3=O)C2)cc1`, the TGI in assay [1], in [2], in assay [3], in [4], in assay [5] and in [6] was more than 100 µM in each case. Further, the TGI in assay [7], in [8], in [9] and in [10] was more than 100 µM throughout.
For `C[C@H]1COC2=C1C(=O)C(=O)c1c2ccc2c1CCCC2(C)C`, the TGI in [1] is 55.6 µM; in assay [2], 12.3 µM; in assay [3], more than 56.2 µM; in assay [4] it was 37 µM; in assay [5], 1.43 µM; in [6] it was 22.9 µM. Further, the TGI in assay [7] was more than 34.5 µM; in assay [8] it was 7.39 µM; in assay [9], more than 54.9 µM; in [10], 24.1 µM.
Consider `Cc1cc(S(=O)(=O)/N=C(/NN)NNc2cccc(C(F)(F)F)n2)c(S)cc1Cl`, for which the TGI turned out to be 57.2 µM in assay [1]; 60.4 µM in assay [2]; 45.7 µM in assay [3]; 37.2 µM in assay [4]; 37.9 µM in assay [5]; 58.3 µM in [6]. The TGI amounted to 72.8 µM in assay [7], 43.1 µM in [8], 57.1 µM in assay [9] and 46 µM in [10].
As for `O=C(O)C(=O)/C=C(\O)c1ccc(Br)cc1`, the TGI in assay [1], in [2], in [3], in [4], in [5] and in assay [6] was more than 100 µM throughout. Besides, the TGI in assay [7], in assay [8], in assay [9] and in [10] was more than 100 µM in each case.
With `O=C1CC2CCC(C1)S2=O` (stereo not given), the TGI in assay [1], in [2], in [3], in assay [4], in assay [5] and in [6] was more than 100 µM each time. In addition, the TGI in assay [7], in assay [8], in assay [9] and in assay [10] was more than 100 µM in each case.
For the molecule `Cc1c(C(=O)O)n2cnnc2c2ccccc12`, the TGI in assay [1], in assay [2], in assay [3], in [4], in assay [5] and in assay [6] was more than 100 µM in each case. Besides, the TGI in assay [7], in [8], in [9] and in [10] was more than 100 µM in each case.
Consider `COc1ccc2c(c1)OC[C@@H]1c3cc(O)c(OCc4ccccc4)cc3O[C@H]21`, for which the TGI was 93.2 µM in assay [1]; 51.9 µM in assay [2]; more than 100 µM in assay [3]; more than 100 µM in assay [4]; 26.5 µM in assay [5]; more than 100 µM in [6]. Moreover, the TGI in assay [7] is 35.7 µM; in [8] it was more than 100 µM; in [9] it was 84.8 µM; in assay [10], 95.7 µM.
`O=C(N/N=C/c1cc(Br)cc(Br)c1[O-])c1ccccc1O.O=C(N/N=C/c1cc(Br)cc(Br)c1[O-])c1ccccc1O.[Ni+2]`: the TGI in assay [1] is 2.62 µM; in assay [2], 0.727 µM; in assay [3], 15.6 µM; in [4], 2.13 µM; in [5] it was 1.44 µM; in [6], 1.34 µM. Moreover, the TGI in assay [7] came out at 1.66 µM; in [8], 2.24 µM; in [9], 1.53 µM; in [10] it was 1.56 µM.
Regarding `Brc1ccc2c(-c3csc(-c4c[nH]c5ccccc45)n3)c[nH]c2c1`, the TGI worked out at 38.8 µM in [1]; 32.2 µM in assay [2]; 36.3 µM in assay [3]; 34.7 µM in assay [4]; 28.6 µM in [5]; 33.1 µM in assay [6]. Besides, the TGI in assay [7] came to 34.4 µM; in assay [8], 29 µM; in [9], 33.4 µM; in assay [10] it was 34 µM. Besides, the GI50 in assay [3] is 19.9 µM.
For `CCC(NC1=NCCO1)c1cccs1` (stereo not given), the TGI was 33.2 µM in [1]; 35.6 µM in assay [2]; more than 100 µM in [3]; 36 µM in [4]; 30.6 µM in [5]; 30.3 µM in [6]. Besides, the TGI in [7] worked out at 46 µM; in assay [8], 63.9 µM; in [9], 30.9 µM; in [10], 37.1 µM.
With `Cc1sc2nc3n(c(=O)c2c1C)N=CN(c1ccc(F)cc1)C3`, the TGI in [1], in assay [2], in assay [3], in [4], in [5] and in [6] was more than 100 µM in each case. Moreover, the TGI in assay [7], in [8], in [9] and in assay [10] was more than 100 µM in each case.
